From ChEMBL document CHEMBL3885861, “Open TG-GATES”

Species: Rattus norvegicus
Experiment: Open TG-GATES - Regimen: Daily Repeat
Assay type: toxicity, organism-based, Sprague-Dawley
Design: regimen Daily Repeat, gender Male, age 6 weeks
Conditions: in vivo, po, 0 mg/kg, route gavage, dose level Control; for APTT / Bas / Eos / Fbg / Hb / Ht / Lym / MCH / MCHC / MCV / Mono / Neu / PT / Plat / RBC / Ret / WBC: tissue Blood; for KIDNEY_L / KIDNEY_R / KIDNEY_TOTAL: tissue Kidney; for LIVER: tissue Liver; for A/G / ALP / ALT / AST / BUN / CRE / Ca / Cl / DBIL / GLC / IP / K / LDH / Na / PL / RALB / TBIL / TC / TG / TP / gamma-GTP: tissue Plasma

SMILES: CCSCC[C@H](N)C(=O)O [ETHIONINE]
- TERMINAL_BW (72 h, time 3 day): 234.6 g
- APTT (72 h, time 3 day): 19.8 s
- Bas (72 h, time 3 day): 0%
- Eos (72 h, time 3 day): 1%
- Fbg (72 h, time 3 day): 226.8 mg/dL
- Hb (72 h, time 3 day): 13 g/dL
- Ht (72 h, time 3 day): 38.3%
- Lym (72 h, time 3 day): 78.2%
- MCH (72 h, time 3 day): 21 pg
- MCHC (72 h, time 3 day): 34%
- MCV (72 h, time 3 day): 61.7 fL
- Mono (72 h, time 3 day): 3%
- Neu (72 h, time 3 day): 17.2%
- PT (72 h, time 3 day): 12 s
- Plat (72 h, time 3 day): 126.2 x10_4/uL
- RBC (72 h, time 3 day): 621.6 x10_4/ul
- Ret (72 h, time 3 day): 5.9%
- WBC (72 h, time 3 day): 113.1 x10_2/uL
- KIDNEY_L (72 h, time 3 day): 1.1 g
- KIDNEY_R (72 h, time 3 day): 1.1 g
- KIDNEY_TOTAL (72 h, time 3 day): 2.1 g
- LIVER (72 h, time 3 day): 10.9 g
- A/G (72 h, time 3 day): 1.6
- ALP (72 h, time 3 day): 977.6 IU/L
- ALT (72 h, time 3 day): 35.6 IU/L
- AST (72 h, time 3 day): 68 IU/L
- BUN (72 h, time 3 day): 13.8 mg/dL
- CRE (72 h, time 3 day): 0.4 mg/dL
- Ca (72 h, time 3 day): 10.8 mg/dL
- Cl (72 h, time 3 day): 101 meq/L
- DBIL (72 h, time 3 day): 0.08 mg/dL
- GLC (72 h, time 3 day): 210.2 mg/dL
- IP (72 h, time 3 day): 7.8 mg/dL
- K (72 h, time 3 day): 3.9 meq/L
- LDH (72 h, time 3 day): 174.8 IU/L
- Na (72 h, time 3 day): 140.4 meq/L
- PL (72 h, time 3 day): 149 mg/dL
- RALB (72 h, time 3 day): 3.4 g/dL
- TBIL (72 h, time 3 day): 0.1 mg/dL
- TC (72 h, time 3 day): 74 mg/dL
- TG (72 h, time 3 day): 99.2 mg/dL
- TP (72 h, time 3 day): 5.5 g/dL
- gamma-GTP (72 h, time 3 day): 1 IU/L
- TERMINAL_BW ([…], time 7 day): 269.1 g
- TERMINAL_BW ([…], time 14 day): 307.1 g
- TERMINAL_BW ([…], time 28 day): 407.1 g
- APTT ([…], time 7 day): 20.5 s
- Bas ([…], time 7 day): 0%
- Eos ([…], time 7 day): 0.8%
- Fbg ([…], time 7 day): 222.8 mg/dL
- Hb ([…], time 7 day): 14 g/dL
- Ht ([…], time 7 day): 41.2%
- Lym ([…], time 7 day): 79%
- MCH ([…], time 7 day): 21.1 pg
- MCHC ([…], time 7 day): 34%
- MCV ([…], time 7 day): 61.8 fL
- Mono ([…], time 7 day): 2.8%
- Neu ([…], time 7 day): 16.6%
- PT ([…], time 7 day): 12.1 s
- Plat ([…], time 7 day): 123.3 x10_4/uL
- RBC ([…], time 7 day): 666 x10_4/ul
- Ret ([…], time 7 day): 5.6%
- WBC ([…], time 7 day): 125.1 x10_2/uL
- APTT ([…], time 14 day): 18.9 s
- Bas ([…], time 14 day): 0%
- Eos ([…], time 14 day): 1%
- Fbg ([…], time 14 day): 213.6 mg/dL
- Hb ([…], time 14 day): 14.5 g/dL
- Ht ([…], time 14 day): 42.1%
- Lym ([…], time 14 day): 77.2%
- MCH ([…], time 14 day): 20.3 pg
- MCHC ([…], time 14 day): 34.5%
- MCV ([…], time 14 day): 58.9 fL
- Mono ([…], time 14 day): 2.4%
- Neu ([…], time 14 day): 18.8%
- PT ([…], time 14 day): 11.9 s
- Plat ([…], time 14 day): 114.5 x10_4/uL
- RBC ([…], time 14 day): 714.8 x10_4/ul
- Ret ([…], time 14 day): 3.8%
- WBC ([…], time 14 day): 113.5 x10_2/uL
- APTT ([…], time 28 day): 20.5 s
- Bas ([…], time 28 day): 0%
- Eos ([…], time 28 day): 1%
- Fbg ([…], time 28 day): 216 mg/dL
- Hb ([…], time 28 day): 15.3 g/dL
- Ht ([…], time 28 day): 43.5%
- Lym ([…], time 28 day): 79.2%
- MCH ([…], time 28 day): 19.6 pg
- MCHC ([…], time 28 day): 35.1%
- MCV ([…], time 28 day): 55.9 fL
- Mono ([…], time 28 day): 2%
- Neu ([…], time 28 day): 16.8%
- PT ([…], time 28 day): 12.4 s
- Plat ([…], time 28 day): 113.3 x10_4/uL
- RBC ([…], time 28 day): 778.4 x10_4/ul
- Ret ([…], time 28 day): 2.2%
- WBC ([…], time 28 day): 104.9 x10_2/uL
- KIDNEY_L ([…], time 7 day): 1.1 g
- KIDNEY_R ([…], time 7 day): 1.1 g
- KIDNEY_TOTAL ([…], time 7 day): 2.2 g
- KIDNEY_L ([…], time 14 day): 1.2 g
- KIDNEY_R ([…], time 14 day): 1.2 g
- KIDNEY_TOTAL ([…], time 14 day): 2.4 g
- KIDNEY_L ([…], time 28 day): 1.5 g
- KIDNEY_R ([…], time 28 day): 1.5 g
- KIDNEY_TOTAL ([…], time 28 day): 2.9 g
- LIVER ([…], time 7 day): 12.6 g
- LIVER ([…], time 14 day): 13 g
- LIVER ([…], time 28 day): 16.6 g
- A/G ([…], time 7 day): 1.5
- ALP ([…], time 7 day): 874.2 IU/L
- ALT ([…], time 7 day): 34.6 IU/L
- AST ([…], time 7 day): 62.2 IU/L
- BUN ([…], time 7 day): 16.8 mg/dL
- CRE ([…], time 7 day): 0.4 mg/dL
- Ca ([…], time 7 day): 10.7 mg/dL
- Cl ([…], time 7 day): 103.2 meq/L
- DBIL ([…], time 7 day): 0.092 mg/dL
- GLC ([…], time 7 day): 198 mg/dL
- IP ([…], time 7 day): 7.6 mg/dL
- K ([…], time 7 day): 3.8 meq/L
- LDH ([…], time 7 day): 173.8 IU/L
- Na ([…], time 7 day): 140.6 meq/L
- PL ([…], time 7 day): 153 mg/dL
- RALB ([…], time 7 day): 3.5 g/dL
- TBIL ([…], time 7 day): 0.2 mg/dL
- TC ([…], time 7 day): 70.6 mg/dL
- TG ([…], time 7 day): 131.8 mg/dL
- TP ([…], time 7 day): 5.8 g/dL
- gamma-GTP ([…], time 7 day): 0.8 IU/L
- A/G ([…], time 14 day): 1.5
- ALP ([…], time 14 day): 742.4 IU/L
- ALT ([…], time 14 day): 34.8 IU/L
- AST ([…], time 14 day): 60.6 IU/L
- BUN ([…], time 14 day): 16 mg/dL
- CRE ([…], time 14 day): 0.4 mg/dL
- Ca ([…], time 14 day): 10.6 mg/dL
- Cl ([…], time 14 day): 102.4 meq/L
- DBIL ([…], time 14 day): 0.082 mg/dL
- GLC ([…], time 14 day): 240.8 mg/dL
- IP ([…], time 14 day): 7.6 mg/dL
- K ([…], time 14 day): 3.4 meq/L
- LDH ([…], time 14 day): 177.2 IU/L
- Na ([…], time 14 day): 141 meq/L
- PL ([…], time 14 day): 144.6 mg/dL
- RALB ([…], time 14 day): 3.5 g/dL
- TBIL ([…], time 14 day): 0.1 mg/dL
- TC ([…], time 14 day): 70 mg/dL
- TG ([…], time 14 day): 125.2 mg/dL
- TP ([…], time 14 day): 5.8 g/dL
- gamma-GTP ([…], time 14 day): 0.8 IU/L
- A/G ([…], time 28 day): 1.3
- ALP ([…], time 28 day): 506.2 IU/L
- ALT ([…], time 28 day): 32.2 IU/L
- AST ([…], time 28 day): 65.2 IU/L
- BUN ([…], time 28 day): 18.8 mg/dL
- CRE ([…], time 28 day): 0.5 mg/dL
- Ca ([…], time 28 day): 10.4 mg/dL
- Cl ([…], time 28 day): 103 meq/L
- DBIL ([…], time 28 day): 0.1 mg/dL
- GLC ([…], time 28 day): 233 mg/dL
- IP ([…], time 28 day): 7.1 mg/dL
- K ([…], time 28 day): 3.8 meq/L
- LDH ([…], time 28 day): 223.6 IU/L
- Na ([…], time 28 day): 141.2 meq/L
- PL ([…], time 28 day): 145.8 mg/dL
- RALB ([…], time 28 day): 3.4 g/dL
- TBIL ([…], time 28 day): 0.1 mg/dL
- TC ([…], time 28 day): 72 mg/dL
- TG ([…], time 28 day): 115.2 mg/dL
- TP ([…], time 28 day): 6.1 g/dL
- gamma-GTP ([…], time 28 day): 0.8 IU/L
